Data on five compounds can be found in ChEMBL document CHEMBL4834425, “Spirombandakamine A3 and Cyclombandakamines A8 and A9, Polycyclic Naphthylisoquinoline Dimers, with Antiprotozoal Activity, from a Congolese Ancistrocladus Plant” (J Nat Prod, 2021).

The test system of series [1] is Leishmania donovani. Put plainly: Antileishmanial activity against Leishmania donovani MHOM/ET/67/L82 amastigotes assessed as inhibition of parasite growth measured after 72 hrs by alamar blue dye based fluorometric analysis. The class given is functional, organism-based. Particulars: MHOM/ET/67/L82, 72 h. A general note: The colour change of resazurin is a common sign of viable cells or microbes.

Series [2] deals with Plasmodium falciparum. Put plainly: Antiplasmodial activity against Plasmodium falciparum NF54 erythrocytic stages assessed as inhibition of parasite growth after 48 hrs by liquid scintillation counting method. The note with it: NF54, 48 h. The class given is functional, organism-based.
Series [3] has as its system Trypanosoma brucei rhodesiense. Put plainly: Antitrypanosomal activity against bloodstream form of Trypanosoma brucei rhodesiense STIB900 assessed as inhibition of parasite growth incubated for 72 hrs by Alamar blue dye-based fluorometric analysis. In kind it is functional, organism-based. Particulars: STIB900, 72 h.
Series [4] has as its system Trypanosoma cruzi. The experiment in a line: Antitrypanosomal activity against amastigote form of Trypanosoma cruzi Tulahuen C4 expressing LacZ infected in rat L6 cells assessed as inhibition of parasite growth incubated for 96 hrs by CPRG/Nonidet reagent based […] analysis. The class given is functional, organism-based. Particulars: Tulahuen C4, L6, 96 h.

The subject of series [5] is L6. The experiment in a line: Cytotoxicity against rat L6 cells measured after 72 hrs by alamar blue dye based fluorometric analysis. The class given is cell-based. Particulars: L6, 72 h.
A short description of series [6]: Selectivity index, ratio of IC50 for cytotoxicity against rat L6 cells to IC50 for antiplasmodial activity against Plasmodium falciparum NF54. In kind it is toxicity, cell-based. The note with it: read-out: Ratio IC50.

As for `CCCCCCCCCCCCCCCCOP(=O)([O-])OCC[N+](C)(C)C` [MILTEFOSINE], the IC50 – broadly, the concentration that inhibits the measured activity by half – in series [1] is 0.39 µM.
As to `COc1ccc2c3c1C(=O)C[C@]1(C)Oc4c(cc(-c5c(O)cc(OC)c6c5C[C@H](C)N(C)[C@@H]6C)c5cc(C)cc(OC)c45)[C@]31Oc1cc(OC)c3c(c1-2)C[C@@H](C)N[C@H]3C`, the IC50 in series [2] was determined as 0.152 µM; in series [3] it was 4.08 µM; in series [4] it was 35.6 µM; in series [1], 27.9 µM; in series [5], 19.3 µM. Also, the selectivity ratio in series [6] stood at 127.
Take `COc1ccc2c3c1C(=O)C[C@]1(C)Oc4c(cc(-c5c(O)cc(OC)c6c5C[C@H](C)N(C)[C@@H]6C)c5cc(C)cc(OC)c45)[C@]31Oc1cc(OC)c3c(c1-2)C[C@@H](C)N[C@@H]3C`: the IC50 is 0.059 µM in series [2]; 0.738 µM in series [3]; 23.6 µM in series [4]; 54.2 µM in series [1]; 16.8 µM in series [5]. Moreover, the selectivity ratio in series [6] was found to be 282.
In the case of `O=C(Cn1ccnc1[N+](=O)[O-])NCc1ccccc1` [BENZNIDAZOLE], in series [4], the IC50 turned out to be 2.77 µM.
As for `COc1ccc2c3c1C(=O)C[C@]31c3cc(-c4c(O)cc(OC)c5c4C[C@@H](C)N[C@@H]5C)c4cc(C)cc(OC)c4c3O[C@]1(C)Oc1cc(OC)c3c(c1-2)C[C@@H](C)N(C)[C@@H]3C`, the IC50 in series [2] was 0.071 µM; in series [3], 0.292 µM; in series [4], 17.3 µM; in series [1], above 100 µM; in series [5], 19.3 µM. Further, the selectivity ratio in series [6] stood at 272.
